Assay results taken from ChEMBL document CHEMBL5512647, “Cajaninstilbene acid derivatives conjugated with siderophores of 3-hydroxypyridin-4(1H)-ones as novel antibacterial agents against Gram-negative bacteria based on the Trojan horse strategy” (Eur J Med Chem, 2024).
Values after ≈ are worked out from the molar mass of the structure shown. Active and inactive are the calls of the source. No cut-off for these calls is given here.

Assays:
Klebsiella pneumoniae [1] = assay: Antibacterial activity against Klebsiella pneumoniae ATCC 700603 measured after 18 to 20 hrs by broth microdilution method; format: functional; settings: time 18-20 hrs
Escherichia coli [2] = assay: Antibacterial activity against Escherichia coli ATCC 25922 measured after 18 to 20 hrs by broth microdilution method; format: functional; settings: time 18-20 hrs
Staphylococcus aureus = assay: Antibacterial activity against Staphylococcus aureus ATCC 25923 measured after 18 to 20 hrs by broth microdilution method; format: functional; settings: time 18-20 hrs
Pseudomonas aeruginosa [3] = assay: Antibacterial activity against Pseudomonas aeruginosa PAO1 measured after 18 to 20 hrs by broth microdilution method; format: functional; settings: time 18-20 hrs
Pseudomonas aeruginosa [4] = assay: Antibacterial activity against Pseudomonas aeruginosa 1121 measured after 18 to 20 hrs by broth microdilution method; format: functional; settings: time 18-20 hrs
Pseudomonas aeruginosa [5] = assay: Antibacterial activity against Pseudomonas aeruginosa 27853 measured after 18 to 20 hrs by broth microdilution method; format: functional; settings: time 18-20 hrs
Pseudomonas aeruginosa [6] = assay: Antibacterial activity against Pseudomonas aeruginosa FB measured after 18 to 20 hrs by broth microdilution method; format: functional; settings: time 18-20 hrs
Pseudomonas aeruginosa [7] = assay: Antibacterial activity against Pseudomonas aeruginosa PAO1 measured after 18 to 20 hrs in presence of FeIII cultured under CAA medium by broth microdilution method; format: functional; settings: time 18-20 hrs
Pseudomonas aeruginosa [8] = assay: Antibacterial activity against Pseudomonas aeruginosa 27853 measured after 18 to 20 hrs in presence of FeIII cultured under CAA medium by broth microdilution method; format: functional; settings: time 18-20 hrs
Klebsiella pneumoniae [9] = assay: Antibacterial activity against Klebsiella pneumoniae ATCC 700603 measured after 18 to 20 hrs in presence of FeIII cultured under CAA medium by broth microdilution method; format: functional; settings: time 18-20 hrs
Escherichia coli [10] = assay: Antibacterial activity against Escherichia coli ATCC 25922 measured after 18 to 20 hrs in presence of FeIII cultured under CAA medium by broth microdilution method; format: functional; settings: time 18-20 hrs
Cell membrane [11] = assay: Induction of outer membrane permeabilization in Pseudomonas aeruginosa PAO1 assessed as increase in accumulation of NPN by measuring fluorescence intensity measured for 1 hr by NPN dye uptake assay; format: cell membranes
[12] = Cytotoxicity against African green monkey Vero cells at 50 uM measured after 24 hrs by MTT assay; format: toxicity, cell-based; settings: chlorocebus sabaeus
[13] = Cytotoxicity against African green monkey Vero cells at 100 uM measured after 24 hrs by MTT assay; format: toxicity, cell-based; settings: chlorocebus sabaeus
Erythrocyte = assay: Hemolytic activity in rabbit red blood cells assessed as hemolysis at 12.5 to 50 uM measured after 2 hrs by microplate reader based analysis; format: toxicity, cell-based, Oryctolagus cuniculus; settings: dose 12.5-50 µM
[14] = Acute toxicity in L4 stage of Caenorhabditis elegans at 12.5 to 50 uM; settings: dose 12.5-50 µM
Pseudomonas aeruginosa [15] = assay: Antibacterial activity against Pseudomonas aeruginosa PAO1 infected in Caenorhabditis elegans assessed as improvement in survival rate at 12.5 to 50 uM measured upto 72 hrs; format: functional, organism-based; settings: dose 12.5-50 µM
Pseudomonas aeruginosa [16] = assay: Antibacterial activity against Pseudomonas aeruginosa PAO1 infected in Caenorhabditis elegans assessed as survival rate at 12.5 to 50 uM measured upto 72 hrs relative to control; format: functional; settings: dose 12.5-50 µM
Cell membrane [17] = assay: Induction of cytoplasmic membrane permeabilization in Pseudomonas aeruginosa PAO1 assessed as disruption of cell membrane integrity by measuring increase in number of dead cells measured after 2 hrs by PI and SYTO9 staining based confocal laser scanning microscopy analysis; format: cell membranes
[18] = Metal chelating activity assessed as compound-Fe3+ complex formation incubated for 10 mins by CAS assay
Pseudomonas aeruginosa [19] = assay: Antibacterial activity against Pseudomonas aeruginosa PAO1 overexpressing fpvA mutant assessed as fold increase in MIC measured after 18 to 20 hrs by broth microdilution method; format: functional; settings: time 18-20 hrs
Pseudomonas aeruginosa [20] = assay: Antibacterial activity against Pseudomonas aeruginosa PAO1 delta-pvds measured after 18 to 20 hrs by broth microdilution method; format: functional, organism-based; settings: time 18-20 hrs
Pseudomonas aeruginosa [21] = assay: Antibacterial activity against Pseudomonas aeruginosa PAO1 infected in Caenorhabditis elegans assessed as improvement in survival rate at 50 uM measured after 72 hrs; format: functional, organism-based

Compound	MIC (Klebsiella pneumoniae [1]) [µM]	MIC (Escherichia coli [2]) [µM]	MIC (Staphylococcus aureus) [µM]	MIC (Pseudomonas aeruginosa [3]) [µM]	MIC (Pseudomonas aeruginosa [4]) [µM]	MIC (Pseudomonas aeruginosa [5]) [µM]	MIC (Pseudomonas aeruginosa [6]) [µM]	other results
CC(C)=CCc1c(OCCCCCCCC(=O)NCc2cc(=O)c(O)cn2C)cc(/C=C/c2ccc(F)cc2)c(C(=O)O)c1O	> 250	> 250	> 250	7.8 (≈ 4.84 µg/mL)	15.6 (≈ 9.68 µg/mL)	15.6 (≈ 9.68 µg/mL)	31.2 (≈ 19.4 µg/mL)	MIC (Pseudomonas aeruginosa [7]): > 250 µM; MIC (Pseudomonas aeruginosa [8]): > 250 µM; MIC (Klebsiella pneumoniae [9]): > 250 µM; MIC (Escherichia coli [10]): > 250 µM; Activity (Cell membrane [11]): Active; Activity [12]: Non-Toxic; Activity [13]: Toxic; Activity (Erythrocyte): Non-Toxic; Activity [14]: Non-Toxic; Activity (Pseudomonas aeruginosa [15]): Active; Survival (Pseudomonas aeruginosa [16]): 50%; Activity (Cell membrane [17]): Dose-Dependent Effect; Activity [18]: Active; fold change (FC) (Pseudomonas aeruginosa [19]): 4; Activity (Pseudomonas aeruginosa [20]): Active
CC(C)=CCc1c(OCCCCCCC(=O)NCc2cc(=O)c(O)cn2C)cc(/C=C/c2ccc(F)cc2)c(C(=O)O)c1O	> 250	> 250	> 250	7.8 (≈ 4.73 µg/mL)	15.6 (≈ 9.46 µg/mL)	15.6 (≈ 9.46 µg/mL)	31.2 (≈ 19 µg/mL)	MIC (Pseudomonas aeruginosa [7]): > 250 µM; MIC (Pseudomonas aeruginosa [8]): > 250 µM; MIC (Klebsiella pneumoniae [9]): > 250 µM; MIC (Escherichia coli [10]): > 250 µM; Activity (Cell membrane [11]): Dose-Dependent Effect; Activity [12]: Non-Toxic; Activity [13]: Toxic; Activity (Erythrocyte): Non-Toxic; Activity [14]: Non-Toxic; Activity (Pseudomonas aeruginosa [15]): Active; Survival (Pseudomonas aeruginosa [16]): 50%; Activity (Cell membrane [17]): Dose-Dependent Effect; Activity [18]: Active; fold change (FC) (Pseudomonas aeruginosa [19]): 4; Activity (Pseudomonas aeruginosa [20]): Active
CC(C)=CCc1c(OCCCCCC(=O)NCc2cc(=O)c(O)cn2C)cc(/C=C/c2ccc(F)cc2)c(C(=O)O)c1O	> 250	> 250	> 250	31.2 (≈ 18.5 µg/mL)	31.2 (≈ 18.5 µg/mL)	31.2 (≈ 18.5 µg/mL)	> 250	–
CC(C)=CCc1c(OCCCCCCC(=O)NCc2c(O)c(=O)cc(C)n2C)cc(/C=C/c2ccc(F)cc2)c(C(=O)O)c1O	> 250	> 250	> 250	7.81 (≈ 4.85 µg/mL)	> 250	> 250	> 250	–
CC(C)=CCc1c(OCCCCCCCC(=O)NCc2c(O)c(=O)cc(C)n2C)cc(CSc2ccc(F)cc2)c(C(=O)O)c1O	> 250	> 250	> 250	> 250	> 250	> 250	> 250	–
CC(C)=CCc1c(OCCCCCC(=O)NCc2cc(=O)c(O)cn2C)cc(CSc2ccc(F)cc2)c(C(=O)O)c1O	> 250	> 250	> 250	> 250	> 250	> 250	> 250	–
COc1cc(/C=C/c2ccc(F)cc2)c(C(=O)O)c(O)c1CC=C(C)C	> 250	> 250	15.6 (≈ 5.56 µg/mL)	> 250	> 250	> 250	> 250	MIC (Pseudomonas aeruginosa [7]): > 250 µM; MIC (Pseudomonas aeruginosa [8]): > 250 µM; MIC (Klebsiella pneumoniae [9]): > 250 µM; MIC (Escherichia coli [10]): > 250 µM; Activity [12]: Non-Toxic; Activity (Pseudomonas aeruginosa [21]): inactive; Activity [18]: inactive
COc1cc(CSc2ccc(F)cc2)c(C(=O)O)c(O)c1CC=C(C)C	> 250	> 250	62.5 (≈ 23.5 µg/mL)	> 250	> 250	> 250	> 250	–
CC(C)=CCc1c(OCCCCCCC(=O)NCc2c(O)c(=O)cc(C)n2C)cc(CSc2ccc(F)cc2)c(C(=O)O)c1O	> 250	> 250	> 250	> 250	> 250	> 250	> 250	–
CC(C)=CCc1c(OCCCCCC(=O)NCc2c(O)c(=O)cc(C)n2C)cc(CSc2ccc(F)cc2)c(C(=O)O)c1O	> 250	> 250	> 250	> 250	> 250	> 250	> 250	–
CC(C)=CCc1c(OCc2cn(CCn3cc(O)c(=O)cc3C)nn2)cc(/C=C/c2ccc(F)cc2)c(C(=O)O)c1O	> 250	> 250	> 250	125 (≈ 71.8 µg/mL)	250 (≈ 144 µg/mL)	62.5 (≈ 35.9 µg/mL)	250 (≈ 144 µg/mL)	–
CC(C)=CCc1c(OCCCCC(=O)NCc2cc(=O)c(O)cn2C)cc(/C=C/c2ccc(F)cc2)c(C(=O)O)c1O	> 250	> 250	> 250	31.2 (≈ 18.1 µg/mL)	31.2 (≈ 18.1 µg/mL)	31.2 (≈ 18.1 µg/mL)	31.2 (≈ 18.1 µg/mL)	–
CCn1cc(O)c(=O)cc1CNC(=O)CCCCCCOc1cc(/C=C/c2ccc(F)cc2)c(C(=O)O)c(O)c1CC=C(C)C	> 250	> 250	> 250	7.8 (≈ 4.84 µg/mL)	> 250	31.2 (≈ 19.4 µg/mL)	> 250	–
CCn1cc(C(=O)O)c(=O)c2cc(F)c(N3CCNCC3)cc21 [NORFLOXACIN]	31.2 (≈ 9.98 µg/mL)	0.49 (≈ 0.156 µg/mL)	7.8 (≈ 2.49 µg/mL)	1.95 (≈ 0.623 µg/mL)	3.9 (≈ 1.25 µg/mL)	15.6 (≈ 4.98 µg/mL)	3.9 (≈ 1.25 µg/mL)	MIC (Pseudomonas aeruginosa [7]): 1.95 µM; MIC (Pseudomonas aeruginosa [8]): 15.6 µM; MIC (Klebsiella pneumoniae [9]): 31.2 µM; MIC (Escherichia coli [10]): 0.49 µM
CC(C)=CCc1c(OCc2cn(CCCn3cc(O)c(=O)cc3C)nn2)cc(/C=C/c2ccc(F)cc2)c(C(=O)O)c1O	> 250	> 250	> 250	31.2 (≈ 18.4 µg/mL)	> 250	31.2 (≈ 18.4 µg/mL)	> 250	–

Now from value to molecule, other results behind:

MIC (Klebsiella pneumoniae [1]) [µM]	MIC (Escherichia coli [2]) [µM]	MIC (Staphylococcus aureus) [µM]	MIC (Pseudomonas aeruginosa [3]) [µM]	MIC (Pseudomonas aeruginosa [4]) [µM]	MIC (Pseudomonas aeruginosa [5]) [µM]	MIC (Pseudomonas aeruginosa [6]) [µM]	Compound	other results
> 250	> 250	> 250	> 250	> 250	> 250	> 250	CC(C)=CCc1c(OCc2cn(Cc3cc(=O)c(O)cn3C)nn2)cc(/C=C/c2ccc(F)cc2)c(C(=O)O)c1O	–
> 250	> 250	> 250	7.8 (≈ 4.95 µg/mL)	> 250	31.2 (≈ 19.8 µg/mL)	> 250	CCCn1cc(O)c(=O)cc1CNC(=O)CCCCCCOc1cc(/C=C/c2ccc(F)cc2)c(C(=O)O)c(O)c1CC=C(C)C	–
> 250	> 250	> 250	> 250	> 250	> 250	> 250	CC(C)=CCc1c(OCCCCCCCC(=O)NCc2cc(=O)c(O)cn2C)cc(CSc2ccc(F)cc2)c(C(=O)O)c1O	–
> 250	> 250	> 250	7.8 (≈ 4.89 µg/mL)	> 250	> 250	> 250	CC(C)=CCc1c(OCCCCCCC(=O)NCc2cc(=O)c(O)cn2C)cc(CSc2ccc(F)cc2)c(C(=O)O)c1O	–
> 250	> 250	> 250	> 250	> 250	> 250	> 250	CC(C)=CCc1c(OCCCCCC(=O)NCc2c(O)c(=O)cc(C)n2C)cc(/C=C/c2ccc(F)cc2)c(C(=O)O)c1O	–
> 250	> 250	> 250	15.6 (≈ 10.7 µg/mL)	> 250	> 250	> 250	CC(C)=CCc1c(OCc2cn(CCCCCCC(=O)NCc3cc(=O)c(O)cn3C)nn2)cc(/C=C/c2ccc(F)cc2)c(C(=O)O)c1O	–
> 250	> 250	> 250	> 250	> 250	> 250	> 250	CC(C)=CCc1c(OCCCCCCCC(=O)NCc2c(O)c(=O)cc(C)n2C)cc(/C=C/c2ccc(F)cc2)c(C(=O)O)c1O	–
> 250	> 250	> 250	> 250	> 250	> 250	> 250	CCCCCCC(=O)NCc1cc(=O)c(O)cn1C	–
> 250	> 250	> 250	> 250	> 250	> 250	> 250	CCCCCCCC(=O)NCc1cc(=O)c(O)cn1C	–
> 250	1.95 (≈ 0.681 µg/mL)	0.24 (≈ 0.0839 µg/mL)	125 (≈ 43.7 µg/mL)	> 250	> 250	> 250	CC1(C)S[C@@H]2[C@H](NC(=O)[C@H](N)c3ccccc3)C(=O)N2[C@H]1C(=O)O [AMPICILLIN]	MIC (Pseudomonas aeruginosa [7]): 62.5 µM; MIC (Pseudomonas aeruginosa [8]): > 250 µM; MIC (Klebsiella pneumoniae [9]): > 250 µM; MIC (Escherichia coli [10]): 3.9 µM
